Here are results for eleven compounds from patent publication US5710170A, “Tri-aryl ethane derivatives as PDE IV inhibitors” (Merck Frosst Canada, Inc., priority 1996, dated 1998).

In series [1] the target is T1, GST-Met 248 PDE IVa (GST fusion protein of the human recombinant phosphodiesterase IVa (met-248)) (Homo sapiens, UniProt P27815).
T1 construct: phosphodiesterase IVa (met-248); made in house; host or cells: Sf-9 insect cells (baculovirus)
Kind of series: SPA based PDE activity assay: inhibition of human recombinant PDE IVa (GST-Met 248). It counts as biochemical. The note with it: 100 nM cAMP; purified GST fusion protein, baculovirus/Sf-9 expression system. The procedure: SPA Based PDE Activity Assay Protocol
Compounds which inhibit the hydrolysis of cAMP to AMP by the type-IV cAMP-specific phosphodiesterases were screened in 96-well plate format as follows:
In a 96 well-plate at 30° C. was added the test compound (dissolved in 2 ul DMSO), 188 ml of substrate buffer containing [2,8-^3 H] adenosine 3',5'-cyclic phosphate (cAMP, 100 nM to 50 μM), 10 mM MgCl2, 1 mM EDTA, 50 mM Tris, pH 7.5. The reaction was initiated by the addition of […] of human recombinant PDE-IV (the amount was controlled so that ~10% product was formed in 10 min. at 30° C.). The reaction was stopped after 10 min. by the addition of 1 mg of PDE-SPA beads (Amersham). The product AMP generated was quantified on a Microbeta 96-well plate counter. The signal in the absence of enzyme was defined as the background. 100% activity was defined as the signal detected in the presence of enzyme and DMSO with the background subtracted. Percentage of inhibition was calculated accordingly. IC50 value was approximated with a non-linear regression fit of the standard 4-parameter/multiple binding sites equation from a ten point titration.
IC50 values shown in Table 4 were determined with 100 nM cAMP using the purified GST fusion protein of the human recombinant phosphodiesterase IVa (met-248) produced from a baculovims/Sf-9 expression system.

For series [2], the system named is right atrial muscle. Particulars: right atria; general statement; cited from earlier work.
For series [3], the system named is papillary muscle. Particulars: general statement; cited from earlier work.
The conditions of series [4]: used in asthma as a bronchodilator; cited from earlier work.

T1 sequence (P27815 248-886 limits assumed): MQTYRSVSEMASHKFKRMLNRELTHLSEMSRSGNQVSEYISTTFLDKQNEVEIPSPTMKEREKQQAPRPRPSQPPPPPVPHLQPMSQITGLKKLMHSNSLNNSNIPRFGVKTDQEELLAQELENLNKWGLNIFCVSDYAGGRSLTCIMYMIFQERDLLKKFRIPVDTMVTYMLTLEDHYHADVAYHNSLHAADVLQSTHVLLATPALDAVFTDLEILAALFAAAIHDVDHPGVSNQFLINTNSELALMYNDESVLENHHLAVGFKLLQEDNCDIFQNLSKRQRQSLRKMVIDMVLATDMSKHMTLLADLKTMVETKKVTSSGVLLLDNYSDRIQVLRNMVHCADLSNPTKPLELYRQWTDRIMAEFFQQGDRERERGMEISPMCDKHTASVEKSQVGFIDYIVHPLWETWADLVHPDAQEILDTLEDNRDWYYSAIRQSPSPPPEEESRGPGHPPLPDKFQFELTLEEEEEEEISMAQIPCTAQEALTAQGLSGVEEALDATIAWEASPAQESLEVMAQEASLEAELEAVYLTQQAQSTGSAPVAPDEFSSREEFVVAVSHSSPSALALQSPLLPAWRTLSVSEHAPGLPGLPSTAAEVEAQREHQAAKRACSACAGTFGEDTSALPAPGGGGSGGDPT

Consider `COc1ccc([C@H](Cc2ccncc2)c2ccc(C(=O)NS(C)(=O)=O)cc2)cc1OC1CCCC1` [Example 1, N-{(R)-4-[1-(3-Cyclopentyloxy-4-methoxyphenyl)-2-(4-pyridyl)ethyl]benzoyl}methanesulfonamide], for which, in series [1], the concentration for half-maximal inhibition (IC50) amounted to 4000 pM.
Turning to `COc1ccc([C@H](Cc2ccncc2)c2ccc(C(=O)NS(=O)(=O)c3ccccc3)cc2)cc1OC1CCCC1` [Example 2, N-{(R)-4-[1-(3-Cyclopentyloxy-4-methoxyphenyl)-2-(4-pyridyl)ethyl]benzoyl}benzenesulfonamide], in series [1], the 50% inhibitory concentration (IC50) was found to be 500 pM.
On to `COc1ccc([C@H](Cc2ccncc2)c2ccc(C(=O)NS(=O)(=O)C(F)(F)F)cc2)cc1OC1CCCC1` [Example 3, N-{(R)-4-[1-(3-Cyclopentyloxy-4-methoxyphenyl)-2-(4-pyridyl)ethyl]benzoyl}trifluoromethanesulfonamide], for which the IC50 in series [1] amounted to 1000 pM.
As for `COc1ccc([C@H](Cc2ccncc2)c2ccc(C(=O)NS(=O)(=O)c3ccccc3C)cc2)cc1OC1CCCC1` [Example 4, N-{(R)-4-[1-(3-Cyclopentyloxy-4-methoxyphenyl)-2-(4-pyridyl)ethyl]benzoyl}o-toluenesulfonamide], the IC50 in series [1] came to 400 pM.
Turning to `COc1ccc([C@H](Cc2ccncc2)c2ccc(CC(=O)NS(=O)(=O)c3ccccc3)cc2)cc1OC1CCCC1` [Example 5, N-{(R)-4-[1-(3-Cyclopentyloxy-4-methoxyphenyl)-2-(4-pyridyl)ethyl]phenylacetyl}benzenesulfonamide], the IC50 in series [1] was determined as 1500 pM.
As to `COc1ccc([C@H](Cc2ccncc2)c2ccc(CC(=O)NS(=O)(=O)C(F)(F)F)cc2)cc1OC1CCCC1` [Example 6, N-{(R)-4-[1-(3-Cyclopentyloxy-4-methoxyphenyl)-2-(4-pyridyl)ethyl]phenylacetyl}trifluoromethanesulfonamide], the IC50 in series [1] was determined as 800 pM.
Turning to `COc1ccc([C@H](Cc2ccncc2)c2ccc(C(O)(C(F)(F)F)C(F)(F)F)cc2)cc1OC1CCCC1` [Example 7, (R)-4-{2-(3-Cyclopentyloxy-4-methoxyphenyl)-2-[4-(1,1,1,3,3,3-hexafluoro-2-hydroxypropan-2-yl)phenyl]ethyl}pyridine], the IC50 in series [1] was 200 pM.
Take `COc1ccc(C(Cc2ccncc2)c2ccc(S(=O)(=O)NC(=O)c3ccccc3C)cc2)cc1OC1CCCC1` (stereo not shown) [Example 8, N-(o-Toluoyl)-4-[1-(3-Cyclopentyloxy-4-methoxyphenyl)-2-(4-pyridyl)ethyl]benzenenesulfonamide]: the IC50 in series [1] was 700 pM.
On to `Cc1[nH]c(=O)c(C#N)cc1-c1ccncc1` [milrinone], for which the “direct chronotropic effects of known PDE inhibitors” value in series [2] is “positive chronotropic and inotropic effects”. Besides, in series [3], the “direct inotropic effects of known PDE inhibitors” value is “positive chronotropic and inotropic effects”.
As to `COc1ccc(C2CNC(=O)C2)cc1OC1CCCC1` (stereo not shown) [rolipram], the “direct chronotropic effects of known PDE inhibitors” value in series [2] is listed as “do not have any direct effects”. The “direct inotropic effects of known PDE inhibitors” value in series [3] is “do not have any direct effects”.
For the compound `Cn1c(=O)c2[nH]cnc2n(C)c1=O` [theophylline], the cardiovascular changes entry in series [4] is “significant cardiovascular changes such as tachycardia”.

A word on the IC50: it is the point on the concentration scale where inhibition reaches its midpoint.
